According to ChEMBL document CHEMBL1201862, “PubChem BioAssay data set” (2004):
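Five concentrations, 48 hours, 96-well plates. Abbreviation: GI50, concentration required for 50% inhibition of growth.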 The source made the active and inactive calls. No stated cut-off is given here; in the data, active = GI50 up to about 1.1 µM and inactive = higher.

Columns and labels:
Assay in all cases: NCI-60 cell line screen, 48 h
SW-620 = tested on: SW-620
COLO 205 = tested on: COLO 205
SF-295 = tested on: SF-295
BT-549 = tested on: BT-549
DU-145 = tested on: DU-145
MCF7 = tested on: MCF7
Hs-578T = tested on: Hs-578T
HOP-62 = tested on: HOP-62
HCC 2998 = tested on: HCC 2998
A498 = tested on: A498
Malme-3M = tested on: Malme-3M
OVCAR-4 = tested on: OVCAR-4
OVCAR-3 = tested on: OVCAR-3
KM12 = tested on: KM12
HL-60 = tested on: HL-60
TK-10 = tested on: TK-10
SNB-19 = tested on: SNB-19
M14 = tested on: M14
MOLT-4 = tested on: MOLT-4
OVCAR-8 = tested on: OVCAR-8
SK-MEL-2 = tested on: SK-MEL-2
HT-29 = tested on: HT-29
NCI-H23 = tested on: NCI-H23
UO-31 = tested on: UO-31
SF-268 = tested on: SF-268
SNB-75 = tested on: SNB-75
SR = tested on: SR
NCI-H522 = tested on: NCI-H522
MDA-N = tested on: MDA-N
SK-MEL-5 = tested on: SK-MEL-5
IGROV-1 = tested on: IGROV-1
OVCAR-5 = tested on: OVCAR-5
A549 = tested on: A549
ACHN = tested on: ACHN
786-0 = tested on: 786-0
K562 = tested on: K562
NCI-H460 = tested on: NCI-H460
UACC-257 = tested on: UACC-257
SF-539 = tested on: SF-539
HCT-15 = tested on: HCT-15
SK-MEL-28 = tested on: SK-MEL-28
SN12C = tested on: SN12C
SK-OV-3 = tested on: SK-OV-3
HCT-116 = tested on: HCT-116
RXF 393 = tested on: RXF 393
UACC-62 = tested on: UACC-62
NCI-H226 = tested on: NCI-H226
CCRF-CEM = tested on: CCRF-CEM
MDA-MB-435 = tested on: MDA-MB-435
U-251 = tested on: U-251
RPMI-8226 = tested on: RPMI-8226
MDA-MB-231 = tested on: MDA-MB-231
NCI/ADR-RES = tested on: NCI/ADR-RES
CAKI-1 = tested on: CAKI-1
EKVX = tested on: EKVX
T47D = tested on: T47D
HOP-92 = tested on: HOP-92
LOX IMVI = tested on: LOX IMVI
PC-3 = tested on: PC-3

SMILES: Cc1ccc(S(=O)(=O)Nc2cc(O)nc3c2CCC3)cc1
- GI50 (SW-620): > 100 µM (inactive)
- GI50 (COLO 205): > 100 µM (inactive)
- GI50 (SF-295): > 100 µM (inactive)
- GI50 (BT-549): > 100 µM (inactive)
- GI50 (DU-145): > 100 µM (inactive)
- GI50 (MCF7): > 100 µM (inactive)
- GI50 (Hs-578T): > 100 µM (inactive)
- GI50 (HOP-62): > 100 µM (inactive)
- GI50 (HCC 2998): > 100 µM (inactive)
- GI50 (A498): > 100 µM (inactive)
- GI50 (Malme-3M): > 100 µM (inactive)
- GI50 (OVCAR-4): 57.1 µM (inactive)
- GI50 (OVCAR-3): > 100 µM (inactive)
- GI50 (KM12): > 100 µM (inactive)
- GI50 (HL-60): 34 µM (inactive)
- GI50 (TK-10): > 100 µM (inactive)
- GI50 (SNB-19): > 100 µM (inactive)
- GI50 (M14): > 100 µM (inactive)
- GI50 (MOLT-4): 42.9 µM (inactive)
- GI50 (OVCAR-8): > 100 µM (inactive)
- GI50 (SK-MEL-2): > 100 µM (inactive)
- GI50 (HT-29): > 100 µM (inactive)
- GI50 (NCI-H23): > 100 µM (inactive)
- GI50 (UO-31): > 100 µM (inactive)
- GI50 (SF-268): > 100 µM (inactive)
- GI50 (SNB-75): > 100 µM (inactive)
- GI50 (SR): > 100 µM (inactive)
- GI50 (NCI-H522): > 100 µM (inactive)
- GI50 (MDA-N): > 100 µM (inactive)
- GI50 (SK-MEL-5): 73.5 µM (inactive)
- GI50 (IGROV-1): > 100 µM (inactive)
- GI50 (OVCAR-5): > 100 µM (inactive)
- GI50 (A549): > 100 µM (inactive)
- GI50 (ACHN): > 100 µM (inactive)
- GI50 (786-0): > 100 µM (inactive)
- GI50 (K562): > 100 µM (inactive)
- GI50 (NCI-H460): > 100 µM (inactive)
- GI50 (UACC-257): > 100 µM (inactive)
- GI50 (SF-539): > 100 µM (inactive)
- GI50 (HCT-15): > 100 µM
- GI50 (SK-MEL-28): > 100 µM (inactive)
- GI50 (SN12C): > 100 µM (inactive)
- GI50 (SK-OV-3): > 100 µM (inactive)
- GI50 (HCT-116): > 100 µM (inactive)
- GI50 (RXF 393): > 100 µM (inactive)
- GI50 (UACC-62): > 100 µM (inactive)
- GI50 (NCI-H226): > 100 µM (inactive)
- GI50 (CCRF-CEM): > 100 µM (inactive)
- GI50 (MDA-MB-435): > 100 µM (inactive)
- GI50 (U-251): > 100 µM (inactive)
- GI50 (RPMI-8226): 43.2 µM (inactive)
- GI50 (MDA-MB-231): > 100 µM (inactive)
- GI50 (NCI/ADR-RES): > 100 µM (inactive)
- GI50 (CAKI-1): > 100 µM (inactive)
- GI50 (EKVX): > 100 µM (inactive)
- GI50 (T47D): > 100 µM (inactive)
- GI50 (HOP-92): > 100 µM (inactive)
- GI50 (LOX IMVI): > 100 µM (inactive)
- GI50 (PC-3): > 100 µM (inactive)

SMILES: COc1ccc(/C=C/C(=O)c2cc(C(C)(C)C)c(O)c(C(C)(C)C)c2)cc1OC
- GI50 (SW-620): 4.32 µM (inactive)
- GI50 (COLO 205): 5.74 µM (inactive)
- GI50 (SF-295): 6.52 µM (inactive)
- GI50 (BT-549): 5.24 µM (inactive)
- GI50 (DU-145): 10 µM (inactive)
- GI50 (MCF7): 4.29 µM (inactive)
- GI50 (Hs-578T): 17.8 µM (inactive)
- GI50 (HOP-62): 23 µM (inactive)
- GI50 (HCC 2998): 2.27 µM (inactive)
- GI50 (A498): 15 µM (inactive)
- GI50 (Malme-3M): 61.2 µM (inactive)
- GI50 (OVCAR-4): 5.9 µM (inactive)
- GI50 (OVCAR-3): 4.97 µM (inactive)
- GI50 (KM12): 4.36 µM (inactive)
- GI50 (HL-60): 2.84 µM (inactive)
- GI50 (TK-10): 6.82 µM (inactive)
- GI50 (SNB-19): 24.8 µM (inactive)
- GI50 (M14): 25.3 µM (inactive)
- GI50 (MOLT-4): 2.77 µM (inactive)
- GI50 (OVCAR-8): 10.5 µM (inactive)
- GI50 (SK-MEL-2): 3.48 µM (inactive)
- GI50 (HT-29): 4.18 µM (inactive)
- GI50 (NCI-H23): 12.1 µM (inactive)
- GI50 (UO-31): 5.16 µM (inactive)
- GI50 (SF-268): 17.9 µM (inactive)
- GI50 (SNB-75): 3.01 µM (inactive)
- GI50 (SR): 0.551 µM (active)
- GI50 (NCI-H522): 5.61 µM (inactive)
- GI50 (MDA-N): 2.94 µM (inactive)
- GI50 (SK-MEL-5): 6.75 µM (inactive)
- GI50 (IGROV-1): 17.7 µM (inactive)
- GI50 (OVCAR-5): 25.2 µM (inactive)
- GI50 (A549): 8.59 µM (inactive)
- GI50 (ACHN): 14.6 µM (inactive)
- GI50 (786-0): 8.67 µM (inactive)
- GI50 (K562): 3.12 µM (inactive)
- GI50 (NCI-H460): 5.52 µM (inactive)
- GI50 (UACC-257): 5.12 µM (inactive)
- GI50 (SF-539): 12.7 µM (inactive)
- GI50 (HCT-15): 5.68 µM
- GI50 (SK-MEL-28): 37.5 µM (inactive)
- GI50 (SN12C): 8.15 µM (inactive)
- GI50 (SK-OV-3): 18.7 µM (inactive)
- GI50 (HCT-116): 4.25 µM (inactive)
- GI50 (RXF 393): 2.86 µM (inactive)
- GI50 (UACC-62): 10 µM (inactive)
- GI50 (NCI-H226): 10.7 µM (inactive)
- GI50 (CCRF-CEM): 2.83 µM (inactive)
- GI50 (MDA-MB-435): 3.2 µM (inactive)
- GI50 (U-251): 5.79 µM (inactive)
- GI50 (RPMI-8226): 2.56 µM (inactive)
- GI50 (MDA-MB-231): 6.4 µM (inactive)
- GI50 (NCI/ADR-RES): 4.85 µM (inactive)
- GI50 (CAKI-1): 10.7 µM (inactive)
- GI50 (EKVX): 11.2 µM (inactive)
- GI50 (T47D): 3.29 µM (inactive)
- GI50 (HOP-92): 16.6 µM (inactive)
- GI50 (LOX IMVI): 8.75 µM (inactive)
- GI50 (PC-3): 3.66 µM (inactive)
